Series [1] concerns collagenase. Kind of series: CEMKATS test of Alagebrium-treated 7-day glycated tendon fibers (Example 6). It counts as biochemical. Particulars: 15 mM Alagebrium 12 hours. As to the method:
7-day glycated (cross-linked) tendon fibers are immersed for 12 hours in a solution of 15 mM Alagebrium dissolved in PBS at a temperature ranging from about 4° C. to 37° C. The fibers are removed from the solution, rinsed in PBS, and then soaked in fresh PBS for 15 minutes. After this soak, the fibers are removed from the PBS bath, rinsed with fresh PBS. The visible PBS is blotted off and the fibers are interfaced with the CEMKATS system. Mechanical strain is applied as described in Example 1. The fiber reaches a peak stress during loading and subsequently relaxes to an equilibrium stress. Once the specimen reaches equilibrium, collagenase would be added. The resulting change in load would be observed and recorded (which would be converted post-hoc to stress).

Series [2] in a line: AGE cross-links in treated graft tissue by FTIR spectrum. As for the experimental part: For an ACL reconstruction, a bone-patellar tendon-bone graft (other eligible grafts include hamstring tendon) is harvested from a cadaveric donor per standard collection procedure. Before freezing, the graft tissue is immersed in a sterile filtered isotonic buffered saline solution containing Alagebrium at a concentration of 0.1 mM for 8 hours at a temperature of ranging from about 4° C. to 37° C. Following incubation with the cross-link breaking reagent, the specimen is rinsed with sterile isotonic buffered saline and then is immersed in a rinsing fluid, such as sterile isotonic buffered saline, with a volume of at least 10 times greater than the estimated volume of the specimen. The specimen remains immersed in the rinse fluid for 30 minutes. The rinsing and immersion step is repeated twice more with fresh rinse solution each time. The tissue specimen is then removed from the fluid, excess liquid is allowed to drain, any visible fluid is gently blotted off with sterile gauze, and is then frozen as per standard procedure. For an ACL reconstruction, a bone-patellar tendon-bone graft (other eligible grafts include hamstring tendon) is harvested from the patient as per standard collecting procedure. Before use, the graft tissue is wrapped in sterile gauze and is soaked in a sterile filtered isotonic buffered saline solution containing Alagebrium at a concentration of 100 mM for 15 minutes at a temperature ranging from about 4° C. to 37° C. Following incubation with the cross-link breaking reagent, the specimen is unwrapped, rinsed with sterile istonic buffered saline and then is wrapped again with sterile gauze and immersed in a rinsing fluid, such as sterile isotonic buffered saline, with a volume of at least 10 times greater than the estimated volume of the specimen. The specimen remains immersed in the rinse fluid for 15 minutes. The tissue specimen is then removed from the fluid, unwrapped, excess liquid is allowed to drain, any visible fluid is gently blotted off with sterile gauze, and then the graft is utilized as per standard procedure. […]

A short description of series [3]: Randomized control trial of treated grafts for ACL reconstruction. It counts as in vivo. The note with it: for relative risk of negative outcomes (Lachman test, pivot-shift test, Drawer test): 6 and 12 months post-surgery. As to the method: For an ACL reconstruction, a bone-patellar tendon-bone graft (other eligible grafts include hamstring tendon) is harvested from a cadaveric donor per standard collection procedure. Before freezing, the graft tissue is immersed in a sterile filtered isotonic buffered saline solution containing Alagebrium at a concentration of 0.1 mM for 8 hours at a temperature of ranging from about 4° C. to 37° C. Following incubation with the cross-link breaking reagent, the specimen is rinsed with sterile isotonic buffered saline and then is immersed in a rinsing fluid, such as sterile isotonic buffered saline, with a volume of at least 10 times greater than the estimated volume of the specimen. The specimen remains immersed in the rinse fluid for 30 minutes. The rinsing and immersion step is repeated twice more with fresh rinse solution each time. The tissue specimen is then removed from the fluid, excess liquid is allowed to drain, any visible fluid is gently blotted off with sterile gauze, and is then frozen as per standard procedure. […] For an ACL reconstruction, a bone-patellar tendon-bone graft (other eligible grafts include hamstring tendon) is harvested from the patient as per standard collecting procedure. Before use, the graft tissue is wrapped in sterile gauze and is soaked in a sterile filtered isotonic buffered saline solution containing Alagebrium at a concentration of 100 mM for 15 minutes at a temperature ranging from about 4° C. to 37° C. Following incubation with the cross-link breaking reagent, the specimen is unwrapped, rinsed with sterile istonic buffered saline and then is wrapped again with sterile gauze and immersed in a rinsing fluid, such as sterile isotonic buffered saline, with a volume of at least 10 times greater than the estimated volume of the specimen. The specimen remains immersed in the rinse fluid for 15 minutes. The tissue specimen is then removed from the fluid, unwrapped, excess liquid is allowed to drain, any visible fluid is gently blotted off with sterile gauze, and then the graft is utilized as per standard procedure.

A short description of series [4]: Relative fluorescence of solubilized fibers. It counts as physicochemical, rat. Particulars: 7 days of 0.2 M ribose exposure, about 460 nm. As for the experimental part:
Ribose incorporation into fibers over time was assessed by fluorescence of solubilized fibers following 0 to 10 days of incubation (Verzijl et al. 2002). Fibers were incubated in 0.2 M ribose solution (solution was exchanged with fresh ribose solution at day 3) and sample fibers were removed daily, rinsed in PBS, and then stored at 4° C. until the end of the time course. Fibers were weighed, then dissolved at 60° C. in a 1:20 dilution of papain (Carica Papaya, Roche Diagnostics, Indianapolis, Ind.) in buffer per the commercial protocol at a concentration of 1 mg tendon per 50 uL of papain solution. Relative fluorescence was measured at about 460 nm using a spectrophotometer (340 ATTC, Tecan US, Chapel Hill, N.C.) as reported by Verzijl et al. 2002. Maximum fluorescence was estimated from measurements of fibers incubated in ribose for 5 weeks.

Where [5] appears, read: cadaveric bone-patellar tendon-bone graft, 0.1 mM for 8 hours.

As to `Cc1sc[n+](CC(=O)c2ccccc2)c1C.[Cl-]` [Alagebrium, 3-phenacyl-4,5-dimethylthiazolium chloride], the “EMK function values versus cross-linked control specimens” value in series [1] (higher strain (above about 3%)) is given as “higher value for the control specimens than the Alagebrium-treated specimens”; in series [1] (low strain (less than about 1.25%)) it was “lower for controls than Alagebrium-treated specimens”. Besides, the “amounts of AGE cross-links (AGE associated absorption peak, FTIR)” value is recorded as “significantly decreased amounts of AGE cross-links” in series [2] (autologous bone-patellar tendon-bone graft, 100 mM for 15 minutes) and “significantly decreased amounts of AGE cross-links” in series [2] (setting [5]). The “stiffness of treated specimen” value in series [2] (setting [5]) is given as “less stiff after treatment”. In addition, the “surgical outcome of ACL reconstruction” value in series [3] (operating room treated autograft, 100 mM for 15 minutes) is “improved surgical outcome”; in series [3] (tissue bank treated graft, 0.1 mM for 8 hours) it was “improved surgical outcome”. Also, the “relative risk of negative outcomes (Lachman test, pivot-shift test, Drawer test)” value in series [3] (versus placebo-treated grafts, operating room treated autograft) is recorded as “lower relative risk”; in series [3] (versus untreated grafts, tissue bank treated graft), “lower relative risk”.

For the molecule `O=C[C@H](O)[C@H](O)[C@H](O)CO` [ribose, D-Ribose], the “relative fluorescence of solubilized rat tail tendon” value in series [4] was “significantly increased”.
